# Data reported in US20230210819A1, “USE OF BENZISOSELAZOLE DERIVATIVE FOR ANTI-CORONAVIRUS AND CONTROL OF INTERSTITIAL LUNG DISEASE (ILD) RELATED TO CORONAVIRUS” (SHANGHAI YUANXI MEDICINE CORP., priority 2020, published 2023).
# How the values were obtained:
# Assay type in all cases: in vivo, C57 mice
# [1] = Body weight, bleomycin-induced mice, 24-h modeling; conditions: BS 90 mg/kg gavage daily
# Protocol: Animals of 24-h modeling were randomly divided into 5 groups according to the table below, 3 animals per control group and 5 animals per test group.
# (§1) Drug administration began 24 h or 7 d after modeling. […] The day of the first administration was counted as D1, the next day as D2, and so forth. The normal groups and Model groups were given 200 µL of normal saline daily by gavage administration.
# All the animals were observed once daily during the experiment for death or dying, feces, ingestion, mental state and behavior and activity. Abnormalities were recorded in time. All the animals were weighed once before grouping and once before each dose.
# (§2) In this experiment, 105 C57 mice were randomly selected and subjected to organ drip administration of a single dose of bleomycin at 2.5 mg/kg for 24 h or 7 d for induction. After 7 days of induction, 3 model mice were randomly selected and dissected to determine whether the modeling was successful. After modeling, the survival of the mice was recorded. The living states of the mice were observed and their body weight was measured at a fixed time.
# A normal control group comprised 3 mice.
# [2] = system: bleomycin-induced mouse lung disease model; assay: Lung and spleen coefficients, 7-d modeling
# Protocol: (§3) Animals of 7-d modeling were randomly divided into 7 groups according to the table below, 6 animals per control group and 12 animals per test group.
# as §1
# Method: after being euthanized, the animals were dissected, and the heart, liver, spleen, lung and kidney were weighed.
# as §2
# A normal control group comprised 6 mice.
# [3] = system: cytokines in bronchoalveolar lavage fluid; assay: Inflammatory factor assay of bronchoalveolar lavage fluid by ELISA; conditions: for Percent reduction in IFN-γ in bronchoalveolar lavage fluid with respect to the Model group / Percent reduction in PPAR-y in bronchoalveolar lavage fluid with respect to the Model group: negative = increase
# Protocol: as §3, §1
# After the mouse was fixed, its trachea and chest cavity were exposed, and the trachea and the esophagus were bluntly separated with an ophthalmic curved forceps. Two sutures were made between the trachea and the esophagus. An intravenous trocar was inserted into the trachea and ligated at the site where it entered the trachea and at its distal end. A 1 mL syringe was connected to draw in 1 mL of pre-cooled PBS and infuse it into the lung tissue. Significant filling in the lung could be seen with the naked eye. The infusion was stopped for 10 s and withdrawal was performed. The infusion/withdrawal cycle was repeated 3 times. The withdrawn BALF was transferred to a clean EP tube and centrifuged at 4° C., and the supernatant was collected and preserved at -80° C. The bronchoalveolar lavage fluid was assayed for inflammatory factors by ELISA.
# [4] = BSH: BS 180 mg/kg gavage daily, second half of table, head taken from the 24th table
smiles,measurement,setting,value
"O=c1c2ccccc2[se]n1CCCCn1[se]c2ccccc2c1=O [BS, 1,4-[bis(1,2-benzisoselenazol-3(2H)-one)]butane]",Body weight,[1]; D1,20.34 ± 1.01 g
same,Body weight,[1]; D7,19.50 ± 1.35 g
same,Body weight,[1]; D14,18.84 ± 1.70 g
same,Body weight,[1]; D21,18.52 ± 1.75 g
same,Body weight,[1]; D28,18.30 ± 1.60 g
same,Body weight,[1]; D35,18.02 ± 1.75 g
same,Body weight decreased by,[1]; day 1 to day 35,13.58%
same,Effect on lung coefficient (in words),"[2]; BS 90 mg/kg or 180 mg/kg, effect better than that of Dex",significantly reduce increases in the lung coefficient
same,Effect on spleen coefficient (in words),"[2]; BS 180 mg/kg, effect better than that of Dex",significantly decrease the spleen coefficient
same,Lung coefficient,[2]; BSH: BS 180 mg/kg gavage daily,0.88±0.05%
same,Spleen coefficient,[2]; BSH: BS 180 mg/kg gavage daily,0.39±0.02%
same,Lung coefficient,[2]; BSL: BS 36 mg/kg gavage daily,0.97±0.07%
same,Spleen coefficient,[2]; BSL: BS 36 mg/kg gavage daily,0.40±0.07%
same,Lung coefficient,[2]; BSM: BS 90 mg/kg gavage daily,0.90±0.09%
same,Spleen coefficient,[2]; BSM: BS 90 mg/kg gavage daily,0.40±0.05%
same,IFN-γ in bronchoalveolar lavage fluid,[3]; BSH: BS 180 mg/kg gavage daily,55.70 ± 4.27 pg/mL
same,NF-κB in bronchoalveolar lavage fluid,[3]; BSH: BS 180 mg/kg gavage daily,759.34 ± 104.53 pg/mL
same,PPAR-γ in bronchoalveolar lavage fluid,[3]; BSH: BS 180 mg/kg gavage daily,237.75 ± 24.92 pg/mL
same,Percent reduction in IL-1β in bronchoalveolar lavage fluid with respect to the Model group,[3]; BSH: BS 180 mg/kg gavage daily,61.70%
same,Percent reduction in IL-2 in bronchoalveolar lavage fluid with respect to the Model group,[3]; BSH: BS 180 mg/kg gavage daily,10.87%
same,Percent reduction in IL-6 in bronchoalveolar lavage fluid with respect to the Model group,[3]; BSH: BS 180 mg/kg gavage daily,67.10%
same,Percent reduction in NF-κB in bronchoalveolar lavage fluid with respect to the Model group,[3]; BSH: BS 180 mg/kg gavage daily,17.22%
same,Percent reduction in TGF-β in bronchoalveolar lavage fluid with respect to the Model group,[3]; BSH: BS 180 mg/kg gavage daily,14.53%
same,Percent reduction in TNF-α in bronchoalveolar lavage fluid with respect to the Model group,[3]; BSH: BS 180 mg/kg gavage daily,22.95%
same,TGF-β in bronchoalveolar lavage fluid,[3]; BSH: BS 180 mg/kg gavage daily,161.82 ± 20.96 pg/mL
same,Percent reduction in IFN-γ in bronchoalveolar lavage fluid with respect to the Model group,[3]; BSH: BS 180 mg/kg gavage daily,-67.81%
same,Percent reduction in PPAR-y in bronchoalveolar lavage fluid with respect to the Model group,[3]; BSH: BS 180 mg/kg gavage daily,-9.52%
same,IL-1β in bronchoalveolar lavage fluid,[3]; [4],4.78 ± 0.69 pg/mL
same,IL-2 in bronchoalveolar lavage fluid,[3]; [4],40.37 ± 5.25 pg/mL
same,IL-6 in bronchoalveolar lavage fluid,[3]; [4],9.47 ± 1.96 pg/mL
same,TNF-α in bronchoalveolar lavage fluid,[3]; [4],43.24 ± 7.14 pg/mL
same,"Inhibitory effect on inflammatory cells and proinflammatory factors (NF-κB, TNF-α, IL-1β, IL-2, IL-6) compared to Dex, in words","[3]; BSH: BS 180 mg/kg, used alone",greater inhibitory effect
same,IFN-γ in bronchoalveolar lavage fluid,[3]; BSL: BS 36 mg/kg gavage daily,38.74 ± 4.74 pg/mL
same,NF-κB in bronchoalveolar lavage fluid,[3]; BSL: BS 36 mg/kg gavage daily,867.20 ± 174.12 pg/mL
same,PPAR-γ in bronchoalveolar lavage fluid,[3]; BSL: BS 36 mg/kg gavage daily,38.74 ± 4.74 pg/mL
same,Percent reduction in IL-1β in bronchoalveolar lavage fluid with respect to the Model group,[3]; BSL: BS 36 mg/kg gavage daily,17.88%
same,Percent reduction in IL-2 in bronchoalveolar lavage fluid with respect to the Model group,[3]; BSL: BS 36 mg/kg gavage daily,4.03%
same,Percent reduction in IL-6 in bronchoalveolar lavage fluid with respect to the Model group,[3]; BSL: BS 36 mg/kg gavage daily,49.92%
same,Percent reduction in NF-κB in bronchoalveolar lavage fluid with respect to the Model group,[3]; BSL: BS 36 mg/kg gavage daily,5.46%
same,Percent reduction in TGF-β in bronchoalveolar lavage fluid with respect to the Model group,[3]; BSL: BS 36 mg/kg gavage daily,0.42%
same,Percent reduction in TNF-α in bronchoalveolar lavage fluid with respect to the Model group,[3]; BSL: BS 36 mg/kg gavage daily,7.38%
same,TGF-β in bronchoalveolar lavage fluid,[3]; BSL: BS 36 mg/kg gavage daily,188.54 ± 24.55 pg/mL
same,Percent reduction in IFN-γ in bronchoalveolar lavage fluid with respect to the Model group,[3]; BSL: BS 36 mg/kg gavage daily,-16.73%
same,Percent reduction in PPAR-y in bronchoalveolar lavage fluid with respect to the Model group,[3]; BSL: BS 36 mg/kg gavage daily,-5.79%
same,IL-1β in bronchoalveolar lavage fluid,"[3]; BSL: BS 36 mg/kg gavage daily, second half of table, head taken from the 24th table",10.26 ± 1.29 pg/mL
